What was measured:
[1] = xn = mol fraction of the nth substance listed; conditions: for mass density / speed of sound / viscosity: 100 kPa, Liquid
[2] = refractive index (Na D-line) (dimensionless); xn = mol fraction of the nth substance listed; conditions: 100 kPa, Liquid

COc1ccc(C=O)cc1 [4-methoxybenzaldehyde] + Clc1ccccc1
Conditions	mass density, [1] [kg/m3]	refractive index, [2]	speed of sound, [1] [m/s]	surface tension liquid-gas, [1] [mN/m]	viscosity, [1] [mPa·s]
303.15 K, x1 = 0.144	1105.1	1.5589	1339	43.12	0.8478
303.15 K, x1 = 0.2517	1107	1.5587	1383	50.12	1.023
303.15 K, x1 = 0.3354	1109.1	1.5586	1418	56	1.168
303.15 K, x1 = 0.4308	1111.2	1.5585	1459	62.5	1.334
303.15 K, x1 = 0.5457	1113.2	1.5583	1505	70.14	1.566
303.15 K, x1 = 0.6271	1115.3	1.5581	1537	75.82	1.771
303.15 K, x1 = 0.7371	1118	1.5578	1580	84.11	2.086
303.15 K, x1 = 0.8079	1122	1.5576	1607	87.59	2.353
303.15 K, x1 = 0.9439	1124	1.5572	1662	96.09	2.948
303.15 K, x1 = 1	1125.5	1.5571	1684	99.08	3.275
313.15 K, x1 = 0.144	1085.1	1.5508	820	41.6	0.7705
313.15 K, x1 = 0.2517	1089.3	1.5507	924	49.11	0.9236
313.15 K, x1 = 0.3354	1092.1	1.5506	1004	55.33	1.047
313.15 K, x1 = 0.4308	–	1.5504	1097	62.12	1.178
313.15 K, x1 = 0.5457	1100.5	1.5502	1207	71.23	1.357
313.15 K, x1 = 0.6271	1103.5	1.55	1283	78.22	1.497
313.15 K, x1 = 0.7371	1107.2	1.5497	1385	83.11	1.762
313.15 K, x1 = 0.8079	1110.2	1.5494	1452	86.41	1.986
313.15 K, x1 = 0.9439	1116.3	1.549	1577	94.66	2.596
313.15 K, x1 = 1	1119.1	1.5488	1631	96.11	2.97
323.15 K, x1 = 0.144	1073.5	1.548	738	40.52	0.6646
323.15 K, x1 = 0.2517	1078.6	1.5479	758	47.99	0.8222
323.15 K, x1 = 0.3354	1082.5	1.5478	850	53.34	0.9386
323.15 K, x1 = 0.4308	1086.3	1.5477	955	60.11	1.059
323.15 K, x1 = 0.5457	1091.6	1.5475	1082	68.77	1.192
323.15 K, x1 = 0.6271	1095	1.5475	1170	75.22	1.287
323.15 K, x1 = 0.7371	1100	1.5474	1290	82.89	1.474
323.15 K, x1 = 0.8079	1103	1.547	1365	85.22	1.635
323.15 K, x1 = 0.9439	1110.1	1.5466	1511	93.44	2.122
323.15 K, x1 = 1	1114.1	1.5463	1571	94.1	2.442

— the NIST ThermoML archive (doi:10.1021/je700714m)
